Structures are written as SMILES.

The test has as its target T1, Hexokinase-1 (Saccharomyces cerevisiae (strain ATCC 204508 / S288c), UniProt P04806).
T1 sequence (P04806 whole entry): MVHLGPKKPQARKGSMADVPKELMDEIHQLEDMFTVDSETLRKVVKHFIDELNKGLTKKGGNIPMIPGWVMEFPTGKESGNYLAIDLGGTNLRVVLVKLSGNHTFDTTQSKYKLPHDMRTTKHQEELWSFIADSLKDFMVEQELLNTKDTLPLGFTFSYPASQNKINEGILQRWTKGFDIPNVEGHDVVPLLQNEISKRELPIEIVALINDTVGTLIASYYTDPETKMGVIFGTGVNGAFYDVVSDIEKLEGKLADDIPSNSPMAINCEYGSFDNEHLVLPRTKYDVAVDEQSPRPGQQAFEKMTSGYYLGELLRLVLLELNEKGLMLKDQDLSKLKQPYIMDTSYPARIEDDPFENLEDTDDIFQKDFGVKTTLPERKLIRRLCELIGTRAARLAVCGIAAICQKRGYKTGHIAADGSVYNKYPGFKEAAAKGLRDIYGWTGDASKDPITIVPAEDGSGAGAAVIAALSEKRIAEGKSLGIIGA
The test can be described thus: Enzyme Inhibition Assay. The conditions noted are these: pH 7.6; 25 °C. As for the experimental part: The assay phosphotransferase activity was followed spectrophotometrically b reduction of NADP in the presence of an excess of glucose-6-phosphate-dehydrogenase (method A). ATPase activity was measured by spectrophotometric measurement of the rate of oxidation of NADH in the presence of phospho-enol-pyruvate, pyruvated-kinase and lactate-dehydrogenase (method B).
The term IC50 denotes the concentration at which inhibition is half-maximal. The molecule `O=C(N[C@@H]1[C@@H](O)[C@H](O)[C@@H](CO)O[C@H]1O)c1ccccc1` [Glucosamine analog, 1] yielded a 50% inhibitory concentration (IC50) of 7 mM. Under `Cc1ccccc1C(=O)N[C@@H]1[C@@H](O)[C@H](O)[C@@H](CO)O[C@@H]1O` [Glucosamine analog, 2] stands 8 mM; under `CC(=O)Nc1ccccc1C(=O)NC1C(O)OC(CO)C(O)C1O` (configuration not stated) [Glucosamine analog, 4], 18 mM. Under `O=C(NC1C(O)OC(CO)C(O)C1O)c1ccccc1[N+](=O)[O-]` (configuration not stated) [Glucosamine analog, 7] stands 3 mM; under `O=C(NC1C(O)OC(CO)C(O)C1O)c1cccc([N+](=O)[O-])c1` (configuration not stated) [Glucosamine analog, 8], 6 mM; under `Nc1ccccc1C(=O)NC1C(O)OC(CO)C(O)C1O` (configuration not stated) [Glucosamine analog, 9], 1 mM. The molecule `Nc1cccc(C(=O)NC2C(O)OC(CO)C(O)C2O)c1` (configuration not stated) [Glucosamine analog, 10] showed an IC50 of 6 mM.
